Results on 35 molecules are retold here after a melting point compilation (Tetko et al.; mined from patent text by program, amines drawn as free bases though some values may be those of a salt).

Each structure is given as a SMILES string.

On to `CC(=O)Nc1cc(Cl)c(Cl)cc1NC(=O)Nc1cc(C(F)(F)F)ccc1Cl`, for which the melting point is 262 to 264 °C.
The same measure for `CC(C)(C)OC(=O)N1CCN(C[C@H](O)Cn2c3ccccc3c3cc(Br)ccc32)CC1`: 75 to 85 °C.
Next, `COc1cc(C(=O)N2CCC(CCN3CCCN(c4nc5ccccc5n4CCOCC#N)CC3)(c3ccccc3)C2)cc(OC)c1OC` (stereo not given): 134 to 148 °C; `COc1cc2c(cc1CCNC(=O)Cc1ccc(OC)c(OC)c1)CCC2`: 115 °C; `Fc1ccc(-c2ccc3c(c2)C2(CCCCC2)C(=NOCc2ccccc2)N3)cc1`: 205 to 208 °C.
Next, `C=CCNC(=O)c1ccccc1C(c1ccc(O)cc1)c1ccc(O)cc1`: 179 to 181 °C.
Regarding `Cc1ccc2c(c1)[nH]c(=O)n2CCO`, the melting point amounted to 159 °C.
Next, `CC(=O)c1c(NC(=O)C(C)(C)C)cccc1C(F)(F)F`: 142 °C.
Next, `CN(C(=O)CBr)c1ccc(OCC(=O)N[C@@H](CC(N)=O)C(=O)N[C@@H](Cc2ccccc2)[C@H](O)C(=O)N2CCC[C@H]2C(=O)NC(C)(C)C)cc1`: 116 to 122 °C; `COC(=O)CC(=O)C=Cc1ccccc1`: 83 °C; `CN(C)CCSc1ncccc1C(O)c1ccccc1` (stereo not given): 88 to 89 °C.
As for `CCCCCCc1sc(C(=O)O)c2c1-c1c(cnn1C)CC2`, the melting point lay in the range of 242 to 243 °C.
The molecule `CCCCCCCCCCCCOc1ccc(C(=O)O)c(O)c1` registered a melting point of 98 to 100 °C.
The same measure for `CCCOCCOc1ccc(COc2ccc3c(c2)C=C(C(=O)O)CCS3(=O)=O)cc1`: 244 to 250 °C; for `CC12CC(N3CCCCC3)C(O)CC1CCC1C2CCC2(C)C(O)C(N3CCC4(CC3)OCCO4)CC12` (stereo not given): 183 to 185 °C; for `COc1cc2ccc(-c3ccccc3[N+](=O)[O-])cc2cc1OC`: 244 to 246 °C.
The same measure for `c1ccc(C23CC(C2)C3)cc1`: 64 to 65 °C.
The same measure for `CCOC(=O)c1ccccc1-n1nc(C(=O)OCC)c2csc(N)c2c1=O`: 176 to 178 °C.
`Cc1oc(-c2ccccc2)nc1CCOc1ccc(I)cn1` displayed a melting point of 105 to 106 °C.
Next, `CNc1nnnn1-c1ccccc1C(=O)O`: 152 to 154 °C; `CN(C)S(=O)(=O)c1cc2c(c(C(=O)O)c1)OC(C)(C)C2`: 211 to 212 °C.
The same measure for `CN1CCN(c2ccc3cnn(C)c3n2)CC1`: 106 to 107 °C; for `COc1c(S(N)(=O)=O)c(C)nn1C`: 144 to 146 °C.
On to `CCCCCCCC(=O)N1CCN(c2ccc3c(c2)N2CCN=C2C(c2ccccc2)=[N+]3[O-])CC1`, for which the melting point was in the range of 212 to 213 °C.
Molecule `COCCCN1CCC(CNC(=O)c2cc(Cl)c(N)n3cc(C)nc23)CC1` had a melting point of 167 °C.
In turn, `CCCCCCCCCCCCCCCCCCc1ccc(S(=O)(=O)Nc2nncs2)cc1` had a melting point of 116 to 117 °C.
In turn, `COC(=O)[C@H](O)Cc1ccccc1` gave a melting point of 46 to 47 °C.
The molecule `COc1cccc(-c2nc(Cl)nc(Cl)n2)c1` gave a melting point of 114 °C.
As for `COc1c(OCc2ccccc2)cnc(CNc2nc(C)nc(C)c2Cl)c1C`, the melting point fell in the range of 114 to 116 °C.
The same measure for `CC1=C(C(=O)OCc2ccccc2)C(c2cccc(Cl)c2Cl)C(C(=O)OCc2ccccc2)=C(C)N1`: 131 to 132 °C; for `CC1(C)OC(=O)C(c2cccc(F)c2)=C1c1ccc(S(C)(=O)=O)cc1`: 173 °C.
The same measure for `O=C(O)COc1cc(F)ccc1C(=O)NCc1cccc([N+](=O)[O-])c1`: 148 to 151 °C; for `ClCCOc1ccccc1OCCCl`: 55 to 56.5 °C; for `CN1C(C)(C)CC(CNc2nc(NO)nc(NCC3CC(C)(C)N(C)C(C)(C)C3)n2)CC1(C)C`: 157 to 160 °C.
The same measure for `CSc1nc(-c2cc(NC(=O)c3ccc(C)c(F)c3)ccc2C)c2c(n1)N(c1c(F)cccc1F)C(=O)NC2`: 167 to 173 °C.

As a reminder, the melting point is the temperature of the solid-liquid transition.
